Measured values reported in PMC6946680, “Modulation of brain cation-Cl^− cotransport via the SPAK kinase inhibitor ZT-1a” (Nature Communications, 2020).

What was measured:
Assay in all cases: Kinase profiling panel
Format in all cases: biochemical
PRK2 = tested on: PRK2
Experimental: (§1) Supplementary Table 2. ZT-1a kinase profiling data6.
(§2) ZT-1a was tested at 10 and 1 µM against a panel of 140 recombinant kinases in an enzymatic
(§3) activity-based assay performed by the International Centre for Kinase Profiling in the MRC
(§4) Protein Phosphorylation and Ubiquitylation Unit. Values represent % residual kinase activity

PDK1 = tested on: PDK1
Experimental: as §1, §2, §3, §4

ERK1 = tested on: ERK1
Experimental: as §1, §2, §3, §4

PKD1 = tested on: PKD1
Experimental: as §1, §2, §3, §4

LKB1 = tested on: LKB1
Experimental: as §1, §2, §3, §4

PLK1 = tested on: PLK1
Experimental: as §1, §2, §3, §4

JNK2 = tested on: JNK2
Experimental: as §1, §2, §3, §4

CDK9-Cyclin T1 = tested on: CDK9-Cyclin T1
Experimental: as §1, §2, §3, §4

PINK = tested on: PINK
Experimental: as §1, §2, §3, §4

TLK1 = tested on: TLK1
Experimental: as §1, §2, §3, §4

STK33 = tested on: STK33
Experimental: as §1, §2, §3, §4

PIM3 = tested on: PIM3
Experimental: as §1, §2, §3, §4

CK2 = tested on: CK2
Experimental: as §1, §2, §3, §4

CDK2-Cyclin A = tested on: CDK2-Cyclin A
Experimental: as §1, §2, §3, §4

EPH-B1 = tested on: EPH-B1
Experimental: as §1, §2, §3, §4

MINK1 = tested on: MINK1
Experimental: as §1, §2, §3, §4

SIK2 = tested on: SIK2
Experimental: as §1, §2, §3, §4

PAK2 = tested on: PAK2
Experimental: as §1, §2, §3, §4

MELK = tested on: MELK
Experimental: as §1, §2, §3, §4

MARK3 = tested on: MARK3
Experimental: as §1, §2, §3, §4

CAMK1 = tested on: CAMK1
Experimental: as §1, §2, §3, §4

PKA = tested on: PKA
Experimental: as §1, §2, §3, §4

EPH-B4 = tested on: EPH-B4
Experimental: as §1, §2, §3, §4

JNK3 = tested on: JNK3
Experimental: as §1, §2, §3, §4

TrkA = tested on: TrkA
Experimental: as §1, §2, §3, §4

MEKK1 = tested on: MEKK1
Experimental: as §1, §2, §3, §4

BRSK2 = tested on: BRSK2
Experimental: as §1, §2, §3, §4

IGF-1R = tested on: IGF-1R
Experimental: as §1, §2, §3, §4

TTBK2 = tested on: TTBK2
Experimental: as §1, §2, §3, §4

PAK4 = tested on: PAK4
Experimental: as §1, §2, §3, §4

DYRK1A = tested on: DYRK1A
Experimental: as §1, §2, §3, §4

TAO1 = tested on: TAO1
Experimental: as §1, §2, §3, §4

NUAK1 = tested on: NUAK1
Experimental: as §1, §2, §3, §4

IKKb = tested on: IKKb
Experimental: as §1, §2, §3, §4

TTBK1 = tested on: TTBK1
Experimental: as §1, §2, §3, §4

JNK1 = tested on: JNK1
Experimental: as §1, §2, §3, §4

ROCK 2 = tested on: ROCK 2
Experimental: as §1, §2, §3, §4

MAP4K3 = tested on: MAP4K3
Experimental: as §1, §2, §3, §4

DDR2 = tested on: DDR2
Experimental: as §1, §2, §3, §4

IR = tested on: IR
Experimental: as §1, §2, §3, §4

HIPK1 = tested on: HIPK1
Experimental: as §1, §2, §3, §4

EPH-B2 = tested on: EPH-B2
Experimental: as §1, §2, §3, §4

MST3 = tested on: MST3
Experimental: as §1, §2, §3, §4

FGF-R1 = tested on: FGF-R1
Experimental: as §1, §2, §3, §4

## Cc1cc(C(C#N)c2ccc(Cl)cc2)c(Cl)cc1NC(=O)c1cc(Cl)ccc1O (stereo not shown) [ZT-1a, 5-chloro-N-(5-chloro-4-((4-chlorophenyl)(cyano)methyl)-2-methylphenyl)-2-hydroxybenzamide]
PRK2; 1 µM
  % residual kinase activity: 118±4%
PRK2; 10 µM
  % residual kinase activity: 120±7%
PDK1; 1 µM
  % residual kinase activity: 92±6%
PDK1; 10 µM
  % residual kinase activity: 69±17%
ERK1; 1 µM
  % residual kinase activity: 107±16%
ERK1; 10 µM
  % residual kinase activity: 109±18%
PKD1; 1 µM
  % residual kinase activity: 89±0%
PKD1; 10 µM
  % residual kinase activity: 79±10%
LKB1; 1 µM
  % residual kinase activity: 107±8%
LKB1; 10 µM
  % residual kinase activity: 115±11%
PLK1; 1 µM
  % residual kinase activity: 72±1%
PLK1; 10 µM
  % residual kinase activity: 93±21%
JNK2; 1 µM
  % residual kinase activity: 102±2%
JNK2; 10 µM
  % residual kinase activity: 147±51%
CDK9-Cyclin T1; 1 µM
  % residual kinase activity: 104±0%
CDK9-Cyclin T1; 10 µM
  % residual kinase activity: 108±1%
PINK; 1 µM
  % residual kinase activity: 101±13%
PINK; 10 µM
  % residual kinase activity: 59±4%
TLK1; 1 µM
  % residual kinase activity: 130±13%
TLK1; 10 µM
  % residual kinase activity: 124±4%
STK33; 1 µM
  % residual kinase activity: 114±7%
STK33; 10 µM
  % residual kinase activity: 100±5%
PIM3; 1 µM
  % residual kinase activity: 115±12%
PIM3; 10 µM
  % residual kinase activity: 99±2%
CK2; 1 µM
  % residual kinase activity: 72±15%
CK2; 10 µM
  % residual kinase activity: 59±16%
CDK2-Cyclin A; 1 µM
  % residual kinase activity: 128±12%
CDK2-Cyclin A; 10 µM
  % residual kinase activity: 125±6%
EPH-B1; 1 µM
  % residual kinase activity: 77±15%
EPH-B1; 10 µM
  % residual kinase activity: 80±19%
MINK1; 1 µM
  % residual kinase activity: 107±5%
MINK1; 10 µM
  % residual kinase activity: 108±6%
SIK2; 1 µM
  % residual kinase activity: 105±16%
SIK2; 10 µM
  % residual kinase activity: 76±8%
PAK2; 1 µM
  % residual kinase activity: 110±4%
PAK2; 10 µM
  % residual kinase activity: 93±8%
MELK; 1 µM
  % residual kinase activity: 130±34%
MELK; 10 µM
  % residual kinase activity: 63±3%
MARK3; 1 µM
  % residual kinase activity: 71±6%
MARK3; 10 µM
  % residual kinase activity: 68±8%
CAMK1; 1 µM
  % residual kinase activity: 60±5%
CAMK1; 10 µM
  % residual kinase activity: 71±31%
PKA; 1 µM
  % residual kinase activity: 80±11%
PKA; 10 µM
  % residual kinase activity: 50±2%
EPH-B4; 1 µM
  % residual kinase activity: 100±8%
EPH-B4; 10 µM
  % residual kinase activity: 151±33%
JNK3; 1 µM
  % residual kinase activity: 63±15%
JNK3; 10 µM
  % residual kinase activity: 60±10%
TrkA; 1 µM
  % residual kinase activity: 108±9%
TrkA; 10 µM
  % residual kinase activity: 91±7%
MEKK1; 1 µM
  % residual kinase activity: 109±1%
MEKK1; 10 µM
  % residual kinase activity: 93±16%
BRSK2; 1 µM
  % residual kinase activity: 115±14%
BRSK2; 10 µM
  % residual kinase activity: 104±0%
IGF-1R; 1 µM
  % residual kinase activity: 145±2%
IGF-1R; 10 µM
  % residual kinase activity: 123±3%
TTBK2; 1 µM
  % residual kinase activity: 101±32%
TTBK2; 10 µM
  % residual kinase activity: 98±34%
PAK4; 1 µM
  % residual kinase activity: 81±16%
PAK4; 10 µM
  % residual kinase activity: 51±3%
DYRK1A; 1 µM
  % residual kinase activity: 119±7%
DYRK1A; 10 µM
  % residual kinase activity: 103±1%
TAO1; 1 µM
  % residual kinase activity: 66±2%
TAO1; 10 µM
  % residual kinase activity: 104±2%
NUAK1; 1 µM
  % residual kinase activity: 52±7%
NUAK1; 10 µM
  % residual kinase activity: 61±16%
IKKb; 1 µM
  % residual kinase activity: 101±0%
IKKb; 10 µM
  % residual kinase activity: 78±3%
TTBK1; 1 µM
  % residual kinase activity: 119±5%
TTBK1; 10 µM
  % residual kinase activity: 102±2%
JNK1; 1 µM
  % residual kinase activity: 106±4%
JNK1; 10 µM
  % residual kinase activity: 110±5%
ROCK 2; 1 µM
  % residual kinase activity: 109±6%
ROCK 2; 10 µM
  % residual kinase activity: 101±10%
MAP4K3; 1 µM
  % residual kinase activity: 134±5%
MAP4K3; 10 µM
  % residual kinase activity: 88±2%
DDR2; 1 µM
  % residual kinase activity: 111±20%
DDR2; 10 µM
  % residual kinase activity: 99±8%
IR; 1 µM
  % residual kinase activity: 105±2%
IR; 10 µM
  % residual kinase activity: 86±13%
HIPK1; 1 µM
  % residual kinase activity: 98±13%
HIPK1; 10 µM
  % residual kinase activity: 90±4%
EPH-B2; 1 µM
  % residual kinase activity: 77±2%
EPH-B2; 10 µM
  % residual kinase activity: 81±8%
MST3; 1 µM
  % residual kinase activity: 109±8%
MST3; 10 µM
  % residual kinase activity: 113±15%
FGF-R1; 1 µM
  % residual kinase activity: 93±6%
FGF-R1; 10 µM
  % residual kinase activity: 101±15%
